Assay results as given in patent US8173689B2 (Novartis AG, priority 2006, dated 2012).
Where two headings read alike, the source gives them in different places.

Tests used:
[1] = biological target: T1, cytoplasmic domain of the human CSF-1R (Homo sapiens, UniProt P07333); assay: In vitro kinase assay for colony stimulating factor-1 receptor (AlphaScreen); format: biochemical; conditions: tested at about 1 μM, read-out: CSF-1R percent inhibition
T1 construct: Recombinant protein corresponding to the cytoplasmic domain of the human CSF-1R; purchased Invitrogen Corporation, Carlsbad, Calif; PV3249
T1 sequence (P07333 539-972 limits assumed): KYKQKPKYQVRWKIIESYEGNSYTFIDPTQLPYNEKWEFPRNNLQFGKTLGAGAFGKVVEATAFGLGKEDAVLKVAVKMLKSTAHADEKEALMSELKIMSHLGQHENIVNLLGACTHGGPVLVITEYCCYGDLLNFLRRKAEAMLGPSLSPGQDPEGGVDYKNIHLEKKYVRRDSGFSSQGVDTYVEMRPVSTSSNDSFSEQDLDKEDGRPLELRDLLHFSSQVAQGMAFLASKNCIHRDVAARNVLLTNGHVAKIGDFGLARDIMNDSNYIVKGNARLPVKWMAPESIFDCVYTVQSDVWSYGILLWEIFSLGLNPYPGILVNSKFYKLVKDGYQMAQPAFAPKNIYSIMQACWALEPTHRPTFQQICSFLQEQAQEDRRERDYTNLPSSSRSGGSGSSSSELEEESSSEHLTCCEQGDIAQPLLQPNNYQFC
Procedure, shortened: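 AlphaScreen read-out (PT66 anti-pTyr acceptor beads, streptavidin donor beads, overnight incubation) measured phosphorylated peptide product. The product was formed by the human CSF-1R cytoplasmic domain at 4 nM with 1 µM ATP in Mg2+/Mn2+ HEPES buffer, pH 7.5. Compound dilution series were 3-fold, starting at 25 µM.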

kinase domain of cKIT = biological target: T2, kinase domain of cKIT (Homo sapiens, UniProt P10721); assay: Inhibition of cKIT kinase signaling in an in vitro biochemical assay (alphascreen); conditions: tested at about 1 μM, read-out: cKit percent inhibition
T2 construct: The kinase domain of cKIT was assayed in 50 mM Hepes; purchased Upstate 14-559
T2 sequence (P10721 589-937 limits assumed): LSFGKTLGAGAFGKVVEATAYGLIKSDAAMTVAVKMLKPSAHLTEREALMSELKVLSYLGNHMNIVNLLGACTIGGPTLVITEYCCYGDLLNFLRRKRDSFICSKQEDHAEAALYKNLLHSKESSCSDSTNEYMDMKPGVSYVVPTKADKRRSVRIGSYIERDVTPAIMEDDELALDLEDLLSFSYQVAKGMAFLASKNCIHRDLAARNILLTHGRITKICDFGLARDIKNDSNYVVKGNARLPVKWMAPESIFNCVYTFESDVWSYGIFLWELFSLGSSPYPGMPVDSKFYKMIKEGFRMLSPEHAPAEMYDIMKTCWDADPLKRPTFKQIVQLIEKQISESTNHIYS

[2] = system: MNFS60 (murine AML cells); assay: Cell viability assay in MCSF dependent MNFS60 cells (Cell Titer Glo); format: cell-based; conditions: Mus musculus, tested at about 1 μM, read-out: M-NFS-60 CP percent inhibition
Procedure, shortened: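 Luminescent ATP signal (CellTiter-Glo) after 72 hrs of compound exposure served as the viability measure. Growth was supported by 10 ng/ml MCSF (final), and EC50 values come from fitted triplicate data.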

kinase domain of PDGFRβ = biological target: T3, kinase domain of PDGFRβ (Homo sapiens, UniProt P09619); assay: Inhibition of PDGFRb kinase signaling in an in vitro biochemical assay (alphascreen); conditions: tested at about 1 μM, read-out: PDGFRβ percent inhibition
T3 construct: The kinase domain of PDGFRβ was assayed in 50 mM Hepes; purchased Invitrogen P3082
T3 sequence (P09619 600-962 limits assumed): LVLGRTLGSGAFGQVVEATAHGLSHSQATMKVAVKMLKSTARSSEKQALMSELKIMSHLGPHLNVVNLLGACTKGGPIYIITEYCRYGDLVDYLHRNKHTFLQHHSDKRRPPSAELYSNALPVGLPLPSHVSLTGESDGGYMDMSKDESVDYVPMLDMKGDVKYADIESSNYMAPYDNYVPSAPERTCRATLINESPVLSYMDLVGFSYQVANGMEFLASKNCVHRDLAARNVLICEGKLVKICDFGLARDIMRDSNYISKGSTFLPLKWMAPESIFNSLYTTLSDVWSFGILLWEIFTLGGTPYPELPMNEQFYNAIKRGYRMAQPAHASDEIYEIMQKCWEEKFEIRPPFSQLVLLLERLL

[3] = biological target: T4, full-length human CSF-1R receptor (Homo sapiens, UniProt P07333); assay: In vitro inhibition of CSF-1R receptor tyrosine phosphorylation in transfected HEK293H cells stimulated with MCSF; format: cell-based; conditions: HEK293-H, tested at about 1 μM, read-out: pCSF1R percent inhibition
T4 construct: transfected with the full-length human CSF-1R receptor cloned in house; expressed in transfected cells; host or cells: HEK293H (Invitrogen Cat. #11631017)
T4 sequence (P07333 20-972): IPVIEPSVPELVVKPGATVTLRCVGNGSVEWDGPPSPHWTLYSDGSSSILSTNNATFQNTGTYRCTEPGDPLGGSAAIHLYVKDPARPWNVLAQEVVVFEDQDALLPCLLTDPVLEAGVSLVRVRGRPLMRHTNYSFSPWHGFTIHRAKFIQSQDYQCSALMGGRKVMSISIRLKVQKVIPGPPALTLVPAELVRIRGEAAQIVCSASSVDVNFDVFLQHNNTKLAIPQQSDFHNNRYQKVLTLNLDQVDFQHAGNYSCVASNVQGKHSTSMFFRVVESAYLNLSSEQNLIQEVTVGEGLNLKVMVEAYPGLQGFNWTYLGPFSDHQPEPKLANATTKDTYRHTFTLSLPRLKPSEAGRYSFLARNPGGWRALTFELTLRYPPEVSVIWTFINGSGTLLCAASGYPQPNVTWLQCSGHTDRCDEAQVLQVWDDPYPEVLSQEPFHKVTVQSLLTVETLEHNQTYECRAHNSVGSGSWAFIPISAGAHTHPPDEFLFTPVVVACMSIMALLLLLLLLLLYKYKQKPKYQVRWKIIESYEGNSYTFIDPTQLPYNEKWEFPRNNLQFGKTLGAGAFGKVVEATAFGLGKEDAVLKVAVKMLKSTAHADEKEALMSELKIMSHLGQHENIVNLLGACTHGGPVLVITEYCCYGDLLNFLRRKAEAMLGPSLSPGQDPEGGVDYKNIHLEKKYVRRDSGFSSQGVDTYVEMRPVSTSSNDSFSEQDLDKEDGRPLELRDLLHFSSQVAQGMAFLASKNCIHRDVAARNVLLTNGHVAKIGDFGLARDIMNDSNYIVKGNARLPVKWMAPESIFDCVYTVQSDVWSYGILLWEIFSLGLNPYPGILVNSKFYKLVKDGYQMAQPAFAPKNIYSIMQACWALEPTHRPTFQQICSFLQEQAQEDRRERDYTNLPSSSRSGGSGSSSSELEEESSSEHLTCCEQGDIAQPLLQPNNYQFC
Protocol: The lysate was then transferred to total CSF-1R antibody coated 96-well plates that had already been blocked with 3% Blocker A from Mesoscale discovery (MSD) for 2 hours and washed afterwards. Lysates were incubated overnight at 4° C. and the plates were then washed 4× with MSD Tris Wash Buffer. […] The plates were read on the Sector 6000 instrument (MSD). Raw data was imported in Abase and EC50s calculated with XL-fit data analysis software.

SMILES | inhibition at 1 µM ([1]; compounds of Table 3) [%] | inhibition at 1 µM (kinase domain of cKIT; compounds of Table 3) [%] | inhibition at 1 µM ([2]; compounds of Table 3) [%] | inhibition at 1 µM (kinase domain of PDGFRβ; compounds of Table 3) [%] | inhibition at 1 µM ([3]; compounds of Table 3) [%] | inhibition at 1 µM [1] [%] | inhibition at 1 µM (kinase domain of cKIT) [%] | inhibition at 1 µM (kinase domain of PDGFRβ) [%] | inhibition at 1 µM ([3]; HEK293H cells) [%] | further results
O[C@@H]1CCCC[C@H]1Nc1nc2ccc(Oc3ccnc(-n4ccnc4)c3)cc2s1 [Example 262, (1R,2R)-2-(6-(2-(1H-imidazol-1-yl)pyridin-4-yloxy)benzo[d]thiazol-2-ylamino)cyclohexanol] | 100 | 20 | 46 | 3 | 48 | – | – | – | – | –
N#Cc1ccc2nccc(Oc3ccc4nc(N[C@@H]5CCCC[C@H]5O)sc4c3)c2c1 [Example 220, 4-(2-((1R,2R)-2-hydroxycyclohexylamino)benzo[d]thiazol-6-yloxy)quinolin-6-carbonitrile] | 100 | 48 | 84 | 65 | 91 | – | – | – | – | –
COCCn1cc(-c2cc(Oc3ccc4nc(N[C@@H]5CCCC[C@H]5O)sc4c3)ccn2)cn1 [Example 260, (1R,2R)-2-(6-(2-(1-(2-methoxyethyl)-1H-pyrazol-4-yl)pyridin-4-yloxy)benzo[d]thiazol-2-ylamino)cyclohexanol] | 100 | 25 | 100 | 0 | 98 | – | – | – | – | –
COc1ccc(-c2cc(Oc3ccc4nc(N[C@@H](C)C5CCCCC5)sc4c3)ccn2)cn1 [Example 279, (S)-N-(1-cyclohexylethyl)-6-(6'-methoxy-2,3'-bipyridin-4-yloxy)benzo[d]thiazol-2-amine] | 100 | 30 | 60 | 7 | 59 | – | – | – | – | –
CNC(=O)c1cc(Oc2ccc3nc(NC4CCCCC4)sc3c2)ccn1 [Compound 135, 4-(2-Cyclohexylamino-benzothiazol-6-yloxy)-pyridine-2-carboxylic acid methylamide] | – | – | – | – | – | 100 | 68 | 20 | 91 | inhibition at 1 µM ([2]; MNFS60 cells): 96%
Cc1nc(-c2cc(Oc3ccc4nc(N[C@@H]5CCCC[C@H]5O)sc4c3)ccn2)[nH]c1C [Example 232, (1R,2R)-2-(6-(2-(4,5-dimethyl-1H-imidazol-2-yl)pyridin-4-yloxy)benzo[d]thiazol-2-ylamino)cyclohexanol] | 100 | 34 | 100 | 64 | 99 | – | – | – | – | –
O[C@@H]1CCCC[C@H]1Nc1nc2ccc(Oc3ccnc(-c4cccc(CN5CCOCC5)c4)c3)cc2s1 [Cmpd 166, (1R,2R)-2-(6-(2-(3-(morpholinomethyl)phenyl)pyridin-4-yloxy)benzo[d]thiazol-2-ylamino)cyclohexanol] | 100 | 13 | 49 | 0 | 78 | – | – | – | – | –
CC(C)C[C@H](CO)Nc1nc2ccc(Oc3ccnc(-c4cnn(C)c4)c3)cc2s1 [Example 355, (R)-4-methyl-2-(6-(2-(1-methyl-1H-pyrazol-4-yl)pyridin-4-yloxy)benzo[d]thiazol-2-ylamino)pentan-1-ol] | – | – | – | – | – | 100 | 27 | 27 | 99 | inhibition at 1 µM ([2]; MCSF dependent MNFS60 cells): 100%
CNC(=O)c1cc(Oc2ccc3nc(NCc4ccc5c(c4)CCO5)oc3c2)ccn1 [Compound 124, 4-{2-[(2,3-Dihydro-benzofuran-5-ylmethyl)-amino]-benzooxazol-6-yloxy}-pyridine-2-carboxylic acid methylamide] | – | – | – | – | – | 99 | 32 | 0 | 94 | inhibition at 1 µM ([2]; MNFS60 cells): 51%
CNC(=O)c1cc(Oc2ccc3nc(N[C@@H]4CCCC[C@H]4CO)sc3c2)ccn1 [Example 299, 4-(2-((1R,2R)-2-(hydroxymethyl)cyclohexyl-amino)benzo[d]thiazol-6-yloxy)-N-methylpicolinamide] | 100 | 32 | 94 | 57 | 95 | – | – | – | – | –
CNC(=O)c1cc(Oc2ccc3nc(N[C@H]4CCCN(C(=O)C5CCCC5)C4)sc3c2)ccn1 [Example 335, (S)-4-(2-(1-(cyclopentanecarbonyl)piper-idin-3-ylamino)benzo[d]thiazol-6-yloxy)-N-methylpicolinamide] | – | – | – | – | – | 100 | 21 | 0 | 50 | inhibition at 1 µM ([2]; MCSF dependent MNFS60 cells): 57%
CC(C)CONC(=O)c1cc(Oc2ccc3nc(NCC4CCCCC4)sc3c2)ccn1 [Example 380, 4-(2-(cyclohexylmethylamino)benzo[d]thiazol-6-yloxy)-N-isobutoxypicolinamide] | – | – | – | – | – | 100 | 53 | 49 | 94 | inhibition at 1 µM ([2]; MCSF dependent MNFS60 cells): 79%
CNC(=O)c1cc(Oc2ccc3nc(N[C@@H]4CCc5ccccc5C4)sc3c2)ccn1 [Example 329, (R)-N-methyl-4-(2-(1,2,3,4-tetrahydronaphthalen-2-ylamino)benzo[d]thiazol-6-yloxy)picolinamide] | – | – | – | – | – | 100 | 59 | 17 | 92 | inhibition at 1 µM ([2]; MCSF dependent MNFS60 cells): 84%
CNC(=O)c1cc(Oc2ccc3nc(N[C@H](C)c4ccccc4)sc3c2)ccn1 [Compound 131, 4-[2-((R)-1-Phenyl-ethylamino)-benzothiazol-6-yloxy]-pyridine-2-carboxylic acid methylamide] | – | – | – | – | – | 99 | 96 | 55 | 98 | inhibition at 1 µM ([2]; MNFS60 cells): 100%
CC(C)[C@@H](CO)Nc1nc2ccc(Oc3ccnc4ccccc34)cc2s1 [Example 244, (S)-3-methyl-2-(6-(quinolin-4-yloxy)benzo[d]thiazol-2-ylamino)butan-1-ol] | 100 | 25 | 67 | 35 | 85 | – | – | – | – | –
CNC(=O)c1cc(Oc2ccc3nc(N[C@H](C)c4ccccc4OC)sc3c2)ccn1 [Compound 129, 4-{2-[(R)-1-(2-Methoxy-phenyl)-ethylamino]-benzothiazol-6-yloxy}-pyridine-2-carboxylic acid methylamide] | – | – | – | – | – | 99 | 92 | 34 | 92 | inhibition at 1 µM ([2]; MNFS60 cells): 94%
CNC(=O)c1cc(Oc2ccc3nc(NCc4cc(F)ccc4F)oc3c2)ccn1 [Compound 33, 4-[2-(2,5-Difluoro-benzylamino)-benzooxazol-6-yloxy]-pyridine-2-carboxylic acid methylamide] | – | – | – | – | – | 98 | – | 35 | 83 | inhibition at 1 µM ([1]; compounds of Table 4): 100%; inhibition at 1 µM (kinase domain of cKIT; compounds of Table 4): 65%; inhibition at 1 µM ([2]; MNFS60 cells): 35%; inhibition at 1 µM ([2]; compounds of Table 4): 100%; inhibition at 1 µM (kinase domain of PDGFRβ; compounds of Table 4): 0%; inhibition at 1 µM ([3]; compounds of Table 4): 98%
O[C@@H]1CCCC[C@H]1Nc1nc2ccc(Oc3ccnc4c(F)cccc34)cc2s1 [Example 263, (1R,2R)-2-(6-(8-fluoroquinolin-4-yloxy)benzo[d]thiazol-2-ylamino)cyclohexanol] | 99 | 12 | 22 | 0 | 24 | – | – | – | – | –
